Columns and labels:
Molm-13 = experiment: MTS cell proliferation assay, Molm-13; assay type: cell-based; conditions: Homo sapiens; Molm-13, 72 hr
Procedure: (§1) Cell proliferation was measured using the CellTiter 96 Aqueous Non-Radioactive Cell Proliferation Assay (Promega). The CellTiter 96® AQueous Assay is composed of solutions of a tetrazolium compound [3-(4,5-dimethylthiazol-2-yl)-5-(3-carboxymethoxyphenyl)-2-(4-sulfophenyl)-2H-tetrazolium, inner salt; MTS] and an electron coupling reagent (phenazine methosulfate) PMS. MTS is bioreduced by cells into a formazan product that is soluble in tissue culture medium. The absorbance of the formazan product at 490 nm can be measured directly from assay plates without additional processing. The quantity of formazan product as measured by the amount of 490 nm absorbance is directly proportional to the number of living cells in culture. Cells were seeded into 96-well or 384-well clear plates in a volume of 200 μL (96-well) or 50 μL (384-well) at optimized densities ranging from 1,000 to 40,000 cells per well for 96-well plates or 1,200 to 25,000 cells per well for 384-well plates depending on cell-line. After 4-6 hr recovery, serially diluted compounds in DMSO were added to the cells using (0.1% v/v final DMSO concentration). Cells were then grown at 37° C. in a humidified incubator with 5% CO2 for 72 hr. A 20:1 [3-(4,5-dimethylthiazol-2-yl)-5-(3-carboxymethoxyphenyl)-2-(4-sulfophenyl)-2H-tetrazolium](MTS):phenazine methosulfate (PMS) solution in DPBS was made immediately before use, added to each well, and cells were incubated for 1.5 hr at 37° C. The absorbance at 490 nm was then measured using a platereader. Absorbance values were normalized as percent of control (cells incubated in the presence of 0.1% v/v DMSO). Sigmoidal dose-response curves were plotted using log(inhibitor) vs. response—Variable slope (four parameters) model with a top value constrained to 100% (GraphPad Prism version 6.00 for Windows, GraphPad Software, La Jolla California USA). […] Curves for compounds that reached a plateau were matched exactly to the measurement points. […] To determine potential of compounds of the invention to affect viability of hematological cancers, cell lines representing various tumor types were selected and tested. Human cell lines tested were: MOLM-13 (acute myeloid leukemia (AML)), MV4-11 (AML), U-2932 (ABC-diffuse large B cell lymphoma), U-937 (histiocytic lymphoma), U-266 (multiple myeloma), RPMI-8226 (multiple myeloma), CMK (megakaryoblastic cell line), SU-DHL-4 (GCB-diffuse large B cell lymphoma), KG1 (AML), Mec-1 (chronic B-cell leukemia), MOLM-16 (AML), Jeko (B-cell lymphoma), WSU-DLCL2 (B-cell lymphoma), JJN3 (plasma cell leukemia), SU-DHL-6 (GCB-diffuse large B cell lymphoma), and Z-138 (mantle cell lymphoma). In addition, two murine cell lines were tested: A20 […].

MV4-11 = experiment: MTS cell proliferation assay, MV4-11; assay type: cell-based, human
Procedure: (§2) Cell proliferation was measured using the CellTiter 96 Aqueous Non-Radioactive Cell Proliferation Assay (Promega). […] MTS is bioreduced by cells into a formazan product that is soluble in tissue culture medium. The absorbance of the formazan product at 490 nm can be measured directly from assay plates without additional processing. The quantity of formazan product as measured by the amount of 490 nm absorbance is directly proportional to the number of living cells in culture. Cells were seeded into 96-well or 384-well clear plates in a volume of 200 μL (96-well) or 50 μL (384-well) at optimized densities ranging from 1,000 to 40,000 cells per well for 96-well plates or 1,200 to 25,000 cells per well for 384-well plates depending on cell-line. After 4-6 hr recovery, serially diluted compounds in DMSO were added to the cells using (0.1% v/v final DMSO concentration). Cells were then grown at 37° C. in a humidified incubator with 5% CO2 for 72 hr. A 20:1 [3-(4,5-dimethylthiazol-2-yl)-5-(3-carboxymethoxyphenyl)-2-(4-sulfophenyl)-2H-tetrazolium](MTS):phenazine methosulfate (PMS) solution in DPBS was made immediately before use, added to each well, and cells were incubated for 1.5 hr at 37° C. The absorbance at 490 nm was then measured using a platereader. Absorbance values were normalized as percent of control (cells incubated in the presence of 0.1% v/v DMSO). Sigmoidal dose-response curves were plotted using log(inhibitor) vs. response—Variable slope (four parameters) model with a top value constrained to 100% (GraphPad Prism version 6.00 for Windows, GraphPad Software, La Jolla California USA). […] To determine potential of compounds of the invention to affect viability of hematological cancers, cell lines representing various tumor types were selected and tested. […] In addition, two murine cell lines were tested: A20 […].

U-2932 = experiment: MTS cell proliferation assay, U-2932; assay type: cell-based; conditions: Homo sapiens, U2932; U-2932, 72 hr
Procedure: as §1

RPMI-8226 = experiment: MTS cell proliferation assay, RPMI-8226; assay type: cell-based; conditions: Homo sapiens; RPMI-8226, 72 hr
Procedure: as §1

Jeko = experiment: MTS cell proliferation assay, Jeko; assay type: cell-based; conditions: Homo sapiens, 72 hr
Procedure: as §1

A20 = experiment: MTS cell proliferation assay, A20; assay type: cell-based, murine; conditions: Mus musculus; A20, 72 hr
Procedure: as §1

C1498 = experiment: MTS cell proliferation assay, C1498; assay type: cell-based, murine
Procedure: as §2

[1] = tested on: hematologic tumor cell lines; experiment: MTS cell proliferation assay, panel of hematologic cancer cell lines; assay type: cell-based; conditions: range over 16 cell lines, FIG. 3; read-out: potency in the cell proliferation assay (EC50)
Procedure: as §1

P-PDK1 [2] = experiment: Western blot, PDK1 phosphorylation in C1498 cells; assay type: cell-based, murine; conditions: C1498
Procedure: (§3) For phosphoprotein analyses, cells were seeded into 10 cm petri dishes (10×10^6 cells/dish) in media supplemented with 10% FBS and penicillin/streptomycin. After cells recovered for 1 hr at 37° C., compounds were added in DMSO (0.1% final) and incubated for 4 or 24 hr at 37° C. Cells were then harvested by centrifugation and washed with cold PBS. Cell pellets were resuspended in cell extraction buffer (Invitrogen) supplemented with 2×Halt™ protease and phosphatase inhibitor cocktail (Thermo Scientific), 2 mM sodium orthovanadate, 10 mM EDTA and 4 mM PMSF. Samples were lysed by sonication and incubated on ice for 30 min. Cell debris was removed by centrifugation and protein concentrations were determined using the BCA Protein Assay Kit (Pierce). The clarified lysate was diluted in LDS sample buffer with reducing agent (Life Technologies). […] Gels were run at 110 V and proteins were transferred to a PVDF membrane. Membranes were blocked in TBS blocking buffer (Li-Cor Biosciences) for 1 hr. Primary antibodies (Cell Signaling, Sant Cruz Biotechnology) were added (1:1,000 dilution) in blocking buffer with 0.1% Tween-20 and 1:20,000 dilution of β-actin antibody and incubated for 14 hr at 4° C. […] Bands were quantitated using ImageJ.

P-RSK2 = experiment: Western blot, RSK2 phosphorylation in C1498 cells; assay type: cell-based, murine; conditions: C1498
Procedure: as §3

P-AKT = experiment: Western blot, AKT phosphorylation in A20 cells; assay type: cell-based, murine
Procedure: For phosphoprotein analyses, cells were seeded into 10 cm petri dishes (10×10^6 cells/dish) in media supplemented with 10% FBS and penicillin/streptomycin. After cells recovered for 1 hr at 37° C., compounds were added in DMSO (0.1% final) and incubated for 4 or 24 hr at 37° C. Cells were then harvested by centrifugation and washed with cold PBS. Cell pellets were resuspended in cell extraction buffer (Invitrogen) supplemented with 2×Halt™ protease and phosphatase inhibitor cocktail (Thermo Scientific), 2 mM sodium orthovanadate, 10 mM EDTA and 4 mM PMSF. Samples were lysed by sonication and incubated on ice for 30 min. Cell debris was removed by centrifugation and protein concentrations were determined using the BCA Protein Assay Kit (Pierce). The clarified lysate was diluted in LDS sample buffer with reducing agent (Life Technologies). […] Gels were run at 110 V and proteins were transferred to a PVDF membrane. Membranes were blocked in TBS blocking buffer (Li-Cor Biosciences) for 1 hr. Primary antibodies (Cell Signaling, Sant Cruz Biotechnology) were added (1:1,000 dilution) in blocking buffer with 0.1% Tween-20 and 1:20,000 dilution of β-actin antibody and incubated for 14 hr at 4° C. Blots were washed in TBS-T. Label-conjugated goat anti-rabbit secondary antibody (IRdye® 800CW; Li-Cor Biosciences) was added in blocking buffer with 0.1% Tween-20 and 0.02% SDS and incubated for 1 hr. After washing in TBS-T followed by TBS, membranes were scanned on an Odyssey imaging system (Li-Cor Biosciences). Bands were quantitated using ImageJ.

P-PDK1 [3] = experiment: Pathway modulation in MV4-11 tumor xenografts, pPDK1; assay type: in vivo, mice; conditions: MV4-11 tumors, 50 mg/kg oral, 8 hrs
Excerpt: MV4-11 cells propagated in vitro were implanted subcutaneous into the right flank of 9-week old female NCr nu/nu mice. On the day of implant, MV4-11 cells were harvested during log phase growth and resuspended in phosphate buffered saline (PBS) containing 50% Matrigel™ (BD Biosciences) at a concentration of 1×10^8 cells/mL. […] Two weeks after implantation, animals were assigned to individual groups of 3 animals with and average tumor volume of approximately 200 mm^3. […] Eight hours post-dose, full blood volume was collected by cardiac puncture under isoflurane anesthesia and tumors were excised and snapfrozen in liquid nitrogen and stored at −80° C. until further analysis. Tumors were pulverized in liquid nitrogen using a Biopulverizer and split into two sample tubes: one for Western blot analysis and one for analysis of compound levels by LC-MS/MS. […] For MS analysis, tumor samples were homogenized with a Virsonic 100 ultrasonic homogenizer. Each sample was first weighed, and then an appropriate volume of 20:80 methanol:water was added to make a 9 mL/gram sample. Samples were then homogenized on ice, and stored frozen until analysis. Standards were prepared in BALB/c mouse plasma or blank homogenized tumor tissue. Standards and samples were analyzed on a PE Sciex API4000 instrument and compound concentration was quantified and back-calculated to ng compound per g tumor tissue and converted to M concentration assuming 1 g tumor tissue equals 1 mL volume.

AKT phosphorylation = experiment: Pathway modulation in MV4-11 tumor xenografts, pAKT; assay type: in vivo, mice; conditions: MV4-11 tumors, 50 mg/kg oral, 8 hrs
Procedure: (§4) MV4-11 cells propagated in vitro were implanted subcutaneous into the right flank of 9-week old female NCr nu/nu mice. On the day of implant, MV4-11 cells were harvested during log phase growth and resuspended in phosphate buffered saline (PBS) containing 50% Matrigel™ (BD Biosciences) at a concentration of 1×10^8 cells/mL. Xenografts were initiated by subcutaneously implanting 1×10^7 MV-4-11 cells (0.1 mL suspension) into the right flank of each test animal and tumors were monitored as their volumes approached the target range of 175 to 225 mm^3. Two weeks after implantation, animals were assigned to individual groups of 3 animals with and average tumor volume of approximately 200 mm^3. […] Eight hours post-dose, full blood volume was collected by cardiac puncture under isoflurane anesthesia and tumors were excised and snapfrozen in liquid nitrogen and stored at −80° C. until further analysis. Tumors were pulverized in liquid nitrogen using a Biopulverizer and split into two sample tubes: one for Western blot analysis and one for analysis of compound levels by LC-MS/MS. Western blot analysis was performed as described above. […] Standards and samples were analyzed on a PE Sciex API4000 instrument and compound concentration was quantified and back-calculated to ng compound per g tumor tissue and converted to M concentration assuming 1 g tumor tissue equals 1 mL volume.

[4] = Compound concentration in MV4-11 tumors by LC-MS/MS; assay type: in vivo, mice; conditions: 50 mg/kg oral
Procedure: as §4

Row | Structure (SMILES) | EC50 (Molm-13) [µM] | EC50 (MV4-11; Homo sapiens, MV4-11, 72 hr, read-out: MTS proliferation assay) [µM] | plateau of growth inhibition curve (MV4-11; MV4-11) | EC50 (U-2932) [µM] | EC50 (RPMI-8226) [µM] | EC50 (Jeko) [µM] | EC50 (A20) [µM] | plateau of growth inhibition curve (C1498; C1498) | EC50 (C1498; Mus musculus, C1498, 72 hr, read-out: MTS proliferation assay) [µM] | EC50 [1] [µM] | effect on PDK1 phosphorylation (P-PDK1 [2]) | effect on RSK2 phosphorylation (P-RSK2) | P-AKT levels (P-AKT) | inhibition of P-PDK1 (P-PDK1 [3]) [%] | inhibition of PDK1 in tumors (P-PDK1 [3]) [%] | inhibition of P-AKT in tumors (AKT phosphorylation) | tumor exposure [4] [mM]
1 | NC1(c2ccc(-c3nc4ccn5c(=O)[nH]nc5c4cc3-c3ccccc3)cc2)CCC1 [MK-2206, reference compound] | 1.37 | 1.3 | do not reach a plateau below 20% | 4.88 | 0.906 | 0.98 | 0.138 | do not reach a plateau below 20% | 0.812 | 0.1 to 10.7 | appears to enhance | appears to enhance | sensitive |  |  |  | 
2 | CS(=O)(=O)N1CCN(Cc2cc3nc(-c4cccc5[nH]ncc45)nc(N4CCOCC4)c3s2)CC1 [GDC-0941, pictilisib] |  |  |  |  |  |  |  |  |  | 0.05 to 6.1 |  |  |  | 25 | 45 | no inhibition | 0.4 to 1.4
